Test results published in publication PMC4973850, “Molecular structure‐function relationship of dietary polyphenols for inhibiting VEGF‐induced VEGFR‐2 activity” (Molecular Nutrition & Food Research, 2015).
Values belong to the compound of their own block, whether it stands above or below them.

Target: T1, VEGF (human recombinant VEGFA165); VEGF‐induced VEGFR‐2 activation in HUVECs (Homo sapiens, UniProt P15692)
T1 construct: purchased R&D Systems, Abingdon, UK
T1 sequence (P15692 1-191 isoform P15692-4): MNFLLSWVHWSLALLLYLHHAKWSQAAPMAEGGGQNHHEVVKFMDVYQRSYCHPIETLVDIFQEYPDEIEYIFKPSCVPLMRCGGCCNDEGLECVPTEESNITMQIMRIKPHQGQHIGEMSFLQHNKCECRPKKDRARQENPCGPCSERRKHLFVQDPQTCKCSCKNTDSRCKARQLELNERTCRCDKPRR
Experiment: Inhibition of VEGF‐induced VEGFR‐2 phosphorylation in HUVECs after pre‐incubating VEGF with polyphenol (Phospho‐VEGFR‐2 Tyr1175 ELISA);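 note: sandwich ELISA of VEGFR-2 phosphorylated at Tyr1175 in lysates of confluent HUVECs, with VEGF alone and DMSO vehicle (≤0.1%) as control incubations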
Format: cell-based
Details: for Inhibition (%): HUVECs; for IC50 (μM) / IC50: VEGF 25 ng/mL pre‐incubated 5 min with polyphenol, then HUVECs 5 min, phospho‐VEGFR‐2 ELISA, 95% confidence intervals in parentheses

SMILES: O=c1c(O)c(-c2ccccc2)oc2ccccc12 [3‐hydroxyflavone]
Inhibition (%) (at 100 μM polyphenol): 52.8 (100 μM) %

SMILES: O=c1cc(-c2ccccc2)oc2cc(O)ccc12 [7‐hydroxyflavone]
Inhibition (%) (at 100 μM polyphenol): Ineffective (100 μM)

SMILES: O=C(O)/C=C/c1ccc(O)c(O)c1 [Caffeic acid]
Inhibition (%) (at 50 μM polyphenol): Ineffective

SMILES: O=C(/C=C/c1ccc(O)c(O)c1)O[C@@H]1C[C@](O)(C(=O)O)C[C@@H](O)[C@H]1O [Chlorogenic acid]
Inhibition (%) (at 50 μM polyphenol): Ineffective

SMILES: Oc1cc(O)c2c(c1)O[C@H](c1cc(O)c(O)c(O)c1)[C@H](O)C2 [EGC, epigallocatechin]
IC50 (μM): 42.9 (36.96–49.97) μM

SMILES: O=C(O[C@@H]1Cc2c(O)cc(O)cc2O[C@@H]1c1cc(O)c(O)c(O)c1)c1cc(O)c(O)c(O)c1 [EGCG, epigallocatechin gallate]
IC50 (μM): 0.088 (0.078–0.100) μM
fold lower IC50 than ECG (ratio of IC50 values): 2 fold

SMILES: O=C1C[C@@H](c2ccc(O)c(O)c2)Oc2cc(O)cc(O)c21 [Eriodictyol]
Inhibition (%) (at 50 μM polyphenol): 20%

SMILES: O=c1cc(-c2ccccc2)oc2ccccc12 [Flavone]
Inhibition (%) (at 100 μM polyphenol): Ineffective (100 μM)
Inhibition (%) (at 100 μM polyphenol, listed as flavone): ineffective

SMILES: O=C(O)c1cc(O)c(O)c(O)c1 [Gallic acid]
Inhibition (%) (at 50 μM polyphenol): 32%

SMILES: COc1cc(-c2oc3cc(O)cc(O)c3c(=O)c2O)ccc1O [Isorhamnetin]
IC50 (μM): 9.053 (7.676–10.68) μM
fold higher IC50 than quercetin (ratio of IC50 values): 12 fold

SMILES: COC(=O)c1cc(O)c(O)c(O)c1 [Methyl gallate]
Inhibition (%) (at 100 μM polyphenol): Ineffective (100 μM)

SMILES: O=c1c(O)c(-c2ccc(O)cc2O)oc2cc(O)cc(O)c12 [Morin]
IC50 (μM): 1.482 (1.357–1.618) μM
fold higher IC50 than quercetin (ratio of IC50 values): about 2 fold

SMILES: O=c1c(O)c(-c2cc(O)c(O)c(O)c2)oc2cc(O)cc(O)c12 [Myricetin]
IC50 (μM): 0.121(0.102–0.144) μM
fold lower IC50 than EGC (ratio of IC50 values): > 300 fold

SMILES: O=C1C[C@@H](c2ccc(O)cc2)Oc2cc(O)cc(O)c21 [Naringenin]
Inhibition (%) (at 100 μM polyphenol): 88.5 (100 μM) %

SMILES: O=C(CCc1ccc(O)cc1)c1c(O)cc(O)cc1O[C@@H]1O[C@H](CO)[C@@H](O)[C@H](O)[C@H]1O [Phloridzin]
Inhibition (%) (at 50 μM polyphenol): Ineffective
Inhibition (%) (at 50 μM polyphenol, listed as phloridzin): completely ineffective

SMILES: OC[C@H]1O[C@@H](Oc2cc(O)cc(/C=C/c3ccc(O)cc3)c2)[C@H](O)[C@@H](O)[C@@H]1O [Piceid]
Inhibition (%) (at 50 μM polyphenol): 28%

SMILES: O=c1c(O)c(-c2ccc(O)c(O)c2)oc2cc(O)c(O)c(O)c12 [Quercetagetin]
IC50 (μM): 0.096 (0.083–0.109) μM
fold more potent VEGF inhibitor than quercetin (ratio of IC50 values): sevenfold

SMILES: O=c1c(O)c(-c2ccc(O)c(O)c2)oc2cc(O)cc(O)c12 [Quercetin]
IC50 (μM): 0.754 (0.674–0.842) μM
IC50 (listed as quercetin): 750 nM
fold lower IC50 compared with (+)‐catechin (ratio of IC50 values): > 250 fold
fold lower IC50 compared with luteolin (ratio of IC50 values): 10 fold

SMILES: C[C@@H]1O[C@@H](Oc2c(-c3ccc(O)c(O)c3)oc3cc(O)cc(O)c3c2=O)[C@H](O)[C@H](O)[C@H]1O [Quercitrin]
Inhibition (%) (at 50 μM polyphenol): Ineffective
Inhibition (%) (at 50 μM polyphenol, listed as quercitrin): completely ineffective

SMILES: COc1ccc(-c2cc(=O)c3c(OC)c(OC)c(OC)cc3o2)cc1OC [Sinensetin]
Inhibition (%) (at 100 μM polyphenol): Ineffective (100 μM)
Inhibition (%) (at 100 μM polyphenol, listed as sinensetin): inhefective

Now from value to compound:

Inhibition (%) (at 100 μM polyphenol): 63.2 (100 μM) %
SMILES: O=c1cc(-c2ccc(O)c(O)c2)oc2c(O)c(O)ccc12 [3′,4′,7,8‐tetrahydroxyflavone]

IC50 (μM): 214.7 (178. 2–258.7) μM
IC50 (listed as (+)‐catechin): 215000 nM
SMILES: Oc1cc(O)c2c(c1)O[C@H](c1ccc(O)c(O)c1)[C@@H](O)C2 [(+)‐Catechin]

Inhibition (%) (at 50 μM polyphenol): 66%
SMILES: O=C1c2ccc(O)cc2O[C@H](c2cc(O)c(O)c(O)c2)[C@H]1O [(+)‐Dihydrorobinetin]

Inhibition (%) (at 200 μM polyphenol (highest concentration tested)): Ineffective (200 μM)
Inhibition (%) (at 200 μM polyphenol (highest concentration tested), listed as (−)‐epicatechin): not an inhibitor
Inhibition (%) (at 200 μM polyphenol (highest concentration tested), listed as epicatechin): ineffective
SMILES: Oc1cc(O)c2c(c1)O[C@H](c1ccc(O)c(O)c1)[C@H](O)C2 [(−)‐Epicatechin]

Inhibition (%) (at 100 μM polyphenol): 58.6 (100 μM) %
SMILES: O=c1cc(-c2ccccc2)oc2cc(O)cc(O)c12 [Chrysin]

IC50: 1050 nM
IC50 (μM): 1.053 (0.764–1.453) μM
log IC50 (datapoint of Fig. 3B): 0.022
fold lower IC50 compared with (+)‐catechin (ratio of IC50 values): 200 fold
SMILES: Oc1cc(O)c2cc(O)c(-c3ccc(O)c(O)c3)[o+]c2c1 [Cyanidin]

IC50 (μM): 0.16 (0.150–0.183) μM
SMILES: O=C(O[C@@H]1Cc2c(O)cc(O)cc2O[C@@H]1c1ccc(O)c(O)c1)c1cc(O)c(O)c(O)c1 [ECG, epicatechin gallate]

Inhibition (%) (at 50 μM polyphenol): 85%
SMILES: O=c1c(O)c(-c2ccccc2)oc2cc(O)cc(O)c12 [Galangin]

Inhibition (%) (at 50 μM polyphenol): 22%
SMILES: O=c1c(-c2ccc(O)cc2)coc2cc(O)cc(O)c12 [Genistein]

Inhibition (%) (at 50 μM polyphenol): Ineffective
Inhibition (%) (at 50 μM polyphenol, listed as hirsutrin): completely ineffective
SMILES: O=c1c(O[C@@H]2O[C@H](CO)[C@@H](O)[C@H](O)[C@H]2O)c(-c2ccc(O)c(O)c2)oc2cc(O)cc(O)c12 [Hirsutrin]

Inhibition (%) (at 50 μM polyphenol): Ineffective
Inhibition (%) (at 50 μM polyphenol, listed as hyperoside): completely ineffective
SMILES: O=c1c(O[C@@H]2O[C@H](CO)[C@H](O)[C@H](O)[C@H]2O)c(-c2ccc(O)c(O)c2)oc2cc(O)cc(O)c12 [Hyperoside]

IC50 (μM): 9.341 (7.749–11.26) μM
SMILES: O=c1c(O)c(-c2ccc(O)cc2)oc2cc(O)cc(O)c12 [Kaempferol]

IC50 (μM): 7.46 (6.592–8.446) μM
SMILES: O=c1cc(-c2ccc(O)c(O)c2)oc2cc(O)cc(O)c12 [Luteolin]

IC50 (μM): 3.311 (3.047–3.598) μM
IC50 (listed as orobol): 3310 nM
fold lower IC50 compared with luteolin (ratio of IC50 values): 2 fold
SMILES: O=c1c(-c2ccc(O)c(O)c2)coc2cc(O)cc(O)c12 [Orobol]

IC50 (μM): 0.547 (0.527–0.568) μM
SMILES: COc1cc(O)c2c(=O)c(O)c(-c3ccc(O)c(O)c3)oc2c1 [Rhamnetin]

Inhibition (%) (at 50 μM polyphenol): Ineffective
Inhibition (%) (at 50 μM polyphenol, listed as rutin): completely ineffective
SMILES: C[C@@H]1O[C@@H](OC[C@H]2O[C@@H](Oc3c(-c4ccc(O)c(O)c4)oc4cc(O)cc(O)c4c3=O)[C@H](O)[C@@H](O)[C@@H]2O)[C@H](O)[C@H](O)[C@H]1O [Rutin]

Inhibition (%) (at 100 μM polyphenol): 100 (100 μM) %
SMILES: COc1ccc(-c2oc3cc(O)cc(O)c3c(=O)c2O)cc1O [Tamarixetin]

Inhibition (%) (at 100 μM polyphenol): 12.3 (100 μM) %
SMILES: O=C1c2c(O)cc(O)cc2O[C@H](c2ccc(O)c(O)c2)[C@H]1O [Taxifolin]
